From patent US8148398B2, “Intermediate duration neuromuscular blocking agents and antagonists thereof” (Cornell Research Foundation, Inc., priority 2006, dated 2012)

What was measured:
Type in all cases: in vivo
Rhesus monkeys [1] = assay: Potency and duration of neuromuscular blockade, twitch response in anesthetized rhesus monkeys; conditions: for spontaneous recovery from neuromuscular blockade / duration of the neuromuscular blockade (FIG. 7): no antagonist; for effective dosage for 50% neuromuscular blockade (dose-response curve) / effective dosage for 95% neuromuscular blockade (dose-response curve): dose-response curve FIG. 3 / FIG. 10; for Potency (ED95 mg/kg) / Duration at 4X ED95 / Duration: rhesus monkeys; for Potency (ED95 mg/kg): intravenous, dose achieving 95% neuromuscular blockade; for Duration at 4X ED95: 4xED95 dosage; for Duration: from injection to 95% twitch recovery
Method: (§1) Rhesus monkeys were anesthetized with ketamine (7.5 mg/Kg) given intramuscularly or intravenously. Anesthesia was maintained with a mixture of isoflurane (1.5%), nitrous oxide (60%) and oxygen (40%). The common peroneal nerve was stimulated supramaximally with square wave pulses of 0.2 m sec duration at a rate of 0.15 Hz. Twitch contractions were recorded via the tendon of the extensor digitorum muscle.
(§2) In all animals, the trachea was intubated and ventilation was controlled at 12-15 ml/kg, 18-24 breaths per minute. A peripheral vein and artery were cannulated for drug administration and for recording of arterial pressure, respectively. In preliminary studies a neuromuscular blocking agent having one of the following structures was administered intravenously.

Rhesus monkeys [2] = assay: Cardiovascular effects (mean arterial pressure, heart rate) of blocking agents in rhesus monkeys; conditions: for change in heart rate / change in mean arterial pressure: even high dosages, FIG. 8 / FIG. 9; for physiological distress to the circulation in vivo: rhesus monkeys
Method: as §1, §2
Rhesus monkeys were anesthetized and treated with a neuromuscular blocking agent as described in Example 1. FIGS. 8 and 9 provide mean values for the cardiovascular effects of administration of the AV002 and AV001 neuromuscular blocking agents, respectively as a function of dosage.

Rhesus monkeys [3] = assay: Reversal of neuromuscular blockade by cysteine plus glutathione in rhesus monkeys (Example 3); conditions: for time for reversal of the neuromuscular blockade (FIG. 5, as stated in Example 3): combination of cysteine and glutathione
Method: as §1, §2
In studies designed to examine the reversal of the neuromuscular blockade caused by these agents, cysteine and/or glutathione was administered to test animals at selected dosages.
Rhesus monkeys were anesthetized and treated with a neuromuscular blocking agent as described in Example 1.

[4] = test system: adult male rhesus monkeys; assay: Reversal of AV002 0.15 mg/kg block by cysteine/glutathione or neostigmine/atropine (Example 5); conditions: AV002 0.15 mg/kg (3XED95), spontaneous recovery
Method: Anesthesia was induced in adult male rhesus monkeys using 7.5 mg/kg ketamine. Tracheae were intubated using topical anesthetic. Anesthesia was maintained with isoflurane 1-2% and N2O/O2 (60%/40%). ECG, temperature, O2 saturation, and blood pressure were monitored and maintained within normal limits. Mechanomyogram (MMG) recordings were made of twitch responses from the extensor digitorum at 0.15 Hz. A control dose of AV002 (0.15 mg/kg; about 3 times the ED95) was given and animals were allowed to recover spontaneously. Another dose of 0.15 mg/kg of AV002 was given approximately 30 minutes after return of train of four (TOF) to greater than 100%. Reversal of the second dose of AV002 was attempted in four separate groups of animals with either:
1) cysteine 30 mg/kg and glutathione 30 mg/kg at 1 minute after injection of AV002,
2) cysteine 30 mg/kg and glutathione 30 mg/kg at the first sign of recovery of twitch,
3) neostigmine 0.05 mg/kg and atropine 0.03 mg/kg at 1 minute after injection of AV002, or
4) neostigmine 0.05 mg/kg and atropine 0.03 mg/kg at the first sign of recovery of twitch.
Comparative recovery intervals and total duration were analyzed using the student t-test.

neuromuscular blockade = assay: Reversibility of neuromuscular blockade by cysteine-like antagonists (general statements); conditions: general statement, no method given
[5] = 0.1 mg/kg blocking agent, FIG. 1 / FIG. 4

Structure (SMILES)	spontaneous recovery from neuromuscular blockade (Rhesus monkeys [1]; [5])	effective dosage for 50% neuromuscular blockade (dose-response curve) (Rhesus monkeys [1]) [mg/kg]	effective dosage for 95% neuromuscular blockade (dose-response curve) (Rhesus monkeys [1]) [mg/kg]	Potency (ED95 mg/kg) (Rhesus monkeys [1]) [mg/kg]	Duration at 4X ED95 (Rhesus monkeys [1]) [min]	Duration (Rhesus monkeys [1]) [min]	change in heart rate (Rhesus monkeys [2])	change in mean arterial pressure (Rhesus monkeys [2])	physiological distress to the circulation in vivo (Rhesus monkeys [2])	reversal of the blockade by cysteine-like molecules (cysteine, glutathione) (neuromuscular blockade)	other results
COc1cc2c(cc1OC)[C@@H](Cc1cc(OC)c(OC)c(OC)c1)[N@+](C)(CCCOC(=O)/C=C/C(=O)OCCC[N@+]1(C)CCc3cc(OC)c(OC)cc3[C@H]1Cc1cc(OC)c(OC)c(OC)c1)CC2 [AV001]	about 2800 seconds	0.027	0.040	0.04	50 to 60	30 to 40	little or no change	little or no change	no signs of causing physiological distress to the circulation		time to reversal of neuromuscular blockade counted from blocking agent administration (Rhesus monkeys [3]; 0.1 mg/kg, 20 mg/kg cysteine + 10 mg/kg glutathione after two minutes): about 475 seconds; recovery from neuromuscular blockade with cysteine plus glutathione, overdose (Rhesus monkeys [3]; 3.0 mg/kg blocking agent, seconds value restated in minutes): about 8.5 min.
COc1ccc(C[C@@H]2c3cc(OC)c(OC)cc3CC[N@@+]2(C)CCCOC(=O)/C=C/C(=O)OCCC[N@+]2(C)CCc3cc(OC)c(OC)cc3[C@H]2Cc2ccc(OC)c(OC)c2)cc1OC [AV002]	about 1600 seconds	0.031	0.045	0.04	30 to 35	20 to 25	little or no change	little or no change	no signs of causing physiological distress to the circulation		Recovery Interval (5-95%) (minutes ± SE) [4]: 13.78 ± 1.27 min; Total Duration (inj − 95%) (minutes ± SE) [4]: 30.45 ± 2.24 min; duration of the neuromuscular blockade (FIG. 7) (Rhesus monkeys [1]; 0.1 mg/kg): about 1766 seconds; spontaneous recovery from neuromuscular blockade (Rhesus monkeys [1]; 0.2 mg/kg blocking agent, FIG. 6): about 1730 seconds; spontaneous recovery from neuromuscular blockade (Rhesus monkeys [1]; 0.2 mg/kg blocking agent, seconds value restated in minutes): about 28.8 min.; duration of the neuromuscular blockade (FIG. 7) (Rhesus monkeys [1]; 0.2 mg/kg): about 2150 seconds; potency of trans isomer (AV002) compared with cis isomer (AV003) (Rhesus monkeys [1]; comparison of ED95 values): five times more potent; time for reversal of the neuromuscular blockade (FIG. 5, as stated in Example 3) (Rhesus monkeys [3]; 0.1 mg/kg): about 320 seconds; recovery from neuromuscular blockade with cysteine plus glutathione (Rhesus monkeys [3]; 0.2 mg/kg blocking agent, antagonists at 2 minutes, seconds value restated in minutes): about 7.5 min.; time for reversal of the neuromuscular blockade (FIG. 5, as stated in Example 3) (Rhesus monkeys [3]; 0.2 mg/kg): about 670 seconds
COc1ccc(C[C@H]2c3cc(OC)c(OC)cc3CC[N@@+]2(C)CCCOC(=O)/C=C/C(=O)OCCC[N@+]2(C)CCc3cc(OC)c(OC)cc3[C@@H]2Cc2ccc(OC)c(OC)c2)cc1OC [AV003]				0.20	45 to 60	25 to 40					
COc1ccc(C[C@@H]2c3cc(OC)c(OC)cc3CC[N@+]2(C)CCC(=O)OCCCCCOC(=O)CC[N@@+]2(C)CCc3cc(OC)c(OC)cc3[C@H]2Cc2ccc(OC)c(OC)c2)cc1OC [cisatracurium]										no reversal effect whatsoever	
COc1cc(CC2c3c(cc(OC)c(OC)c3OC)CC[N+]2(C)CCCOC(=O)CCC(=O)OCCC[N+]2(C)CCc3cc(OC)c(OC)c(OC)c3C2Cc2cc(OC)c(OC)c(OC)c2)cc(OC)c1OC (stereo not drawn) [doxacurium]										no reversal effect whatsoever	
COc1cc2c(cc1OC)[C@@H](Cc1cc(OC)c(OC)c(OC)c1)[N+](C)(CCCOC(=O)CC/C=C/CCC(=O)OCCC[N+]1(C)CCc3cc(OC)c(OC)cc3[C@H]1Cc1cc(OC)c(OC)c(OC)c1)CC2 (stereo partly drawn) [mivacurium]										no reversal effect whatsoever	
